Test results from BigSolDB 2.1.

O=c1cnc(Br)c[nH]1
solubility (mole fraction)
Settings	in DMF	in acetone	in acetonitrile	in ethanol	in ethylene glycol	in isopropanol	in methanol	in n-propanol	in propylene glycol	in water
278.15 K	0.00576	0.00534	0.00413	0.000696	0.00014	0.00258	0.000272	0.00382	0.000194	8.21e-06
283.15 K	0.00768	0.00685	0.00519	0.000989	0.000203	0.00333	0.000366	0.00472	0.00025	1.29e-05
288.15 K	0.00988	0.00877	0.00625	0.00128	0.000284	0.00439	0.000485	0.00579	0.000338	1.81e-05
293.15 K	0.0124	0.0106	0.00766	0.00166	0.000386	0.00534	0.000633	0.0072	0.000448	2.46e-05
298.15 K	0.0151	0.013	0.00941	0.0021	0.000504	0.00678	0.000782	0.00879	0.000589	3.2e-05
303.15 K	0.0181	0.0161	0.0113	0.00251	0.00065	0.00863	0.000951	0.0106	0.000766	4.13e-05
308.15 K	0.0219	0.0194	0.0136	0.00303	0.000845	0.0109	0.00116	0.0129	0.000961	5.32e-05
313.15 K	0.026	0.023	0.0161	0.0036	0.00111	0.0135	0.0014	0.0152	0.00121	6.69e-05
318.15 K	0.0309	0.0275	0.019	0.00434	0.00139	0.0168	0.00169	0.018	0.00152	8.43e-05
323.15 K	0.0365	0.0328	0.0222	0.00525	0.00174	0.0205	0.00203	0.0213	0.00187	0.000106
